In patent publication US11912693B2, “Compounds for modulating S1P1 activity and methods of using the same” (TREVENA, INC., priority 2017, dated 2024):

How the values were obtained:
[1] = molecular target: T1, human sphingosine-1-phosphate receptor 1 (S1P1) (Homo sapiens (Human), UniProt P21453); test: Inhibition of cAMP production (HTRF cAMP HiRange), S1P1 CHO-K1 cells; format: cell-based; conditions: for hS1P1 cAMP SPAN / Emax: efficacy (SPAN) normalized to fingolimod; for Emax: CHO-K1, read-out: hS1P1 cAMP SPAN
Experimental: (§1) Stable clonal Chinese hamster ovary K1 (CHO-K1) cells co-expressing EA-β-arrestin2 and the human sphingosine-1-phosphate receptor 1 (NM_001400, S1P1) with a C-terminal Prolink™ tag were purchased from DiscoverX corporation (Cat #: 93-0207C2).
(§2) Cell lines were cultured in AssayComplete™ Media 6 (DiscoverX Corporation, Cat #: 920018GF2) at 37° C. and 5% CO2 in a humidified CO2 and temperature-controlled incubator. To begin assay plating, cells were washed with dulbecco's phosphate buffered saline (CellGro, Cat #: 21-031-CV) and lifted from the culturing flask by incubation (37° C., 5 min) with CellStripper (Cellgro, Cat #: 25-056-CI). […] Plated cells were incubated overnight at 37° C. and 5% CO2 in a humidified CO2 and temperature-controlled incubator. Detecting Inhibition of cAMP Production
Agonist-promoted G-protein responses were determined by measuring changes in intracellular cAMP using the HTRF® cAMP HiRange kit (CisBio, Cat #: 62AM6PEJ) based on time-resolved fluorescence resonance energy transfer (TR-FRET) technology. […] Following a 30-minute incubation at 37° C. and 5% CO2 in a humidified CO2 and temperature-controlled incubator, the components of the cAMP HiRange kit were added as per the manufacturer's instructions. After an hour incubation at room temperature, plates were analyzed by a BMG PheraStar microplate reader.
(§3) The tables below include the efficacy of the compound as compared to a positive control, referred to as “SPAN”. These values are normalized to fingolimod, a known agonist of the sphingosine-1-phosphate 1 receptor. The tables also include potency values (pEC50) for modulating discrete receptor-mediated activities (inhibition of cAMP production and […] recruitment).
Target sequence in this assay (P21453 whole entry, looked up): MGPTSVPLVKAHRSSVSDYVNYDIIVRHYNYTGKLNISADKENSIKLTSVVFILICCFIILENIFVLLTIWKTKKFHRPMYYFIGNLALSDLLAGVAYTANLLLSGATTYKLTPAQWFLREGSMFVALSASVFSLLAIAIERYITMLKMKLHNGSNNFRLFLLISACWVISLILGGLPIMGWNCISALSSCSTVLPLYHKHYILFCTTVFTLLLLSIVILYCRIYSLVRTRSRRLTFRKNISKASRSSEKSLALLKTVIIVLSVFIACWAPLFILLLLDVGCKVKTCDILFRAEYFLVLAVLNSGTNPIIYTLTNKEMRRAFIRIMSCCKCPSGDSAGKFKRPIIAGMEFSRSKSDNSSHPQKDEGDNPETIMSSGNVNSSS

[2] = molecular target: T1, human sphingosine-1-phosphate receptor 1 (S1P1); test: β-Arrestin2 recruitment assay (PathHunter), S1P1 CHO-K1 cells; format: cell-based; conditions: for hS1P1 B-arrestin2 SPAN / Emax: efficacy (SPAN) normalized to fingolimod; for hS1P1 B-arrestin2 pEC50: β-arrestin2 recruitment, S1P1 CHO-K1 cells; for Emax: CHO-K1, read-out: hS1P1 B-arrestin2 SPAN
Experimental: as §1, §2
Target sequence in this assay (P21453 whole entry, looked up): as above
Target sequence in this assay (P32121 whole entry partner, looked up): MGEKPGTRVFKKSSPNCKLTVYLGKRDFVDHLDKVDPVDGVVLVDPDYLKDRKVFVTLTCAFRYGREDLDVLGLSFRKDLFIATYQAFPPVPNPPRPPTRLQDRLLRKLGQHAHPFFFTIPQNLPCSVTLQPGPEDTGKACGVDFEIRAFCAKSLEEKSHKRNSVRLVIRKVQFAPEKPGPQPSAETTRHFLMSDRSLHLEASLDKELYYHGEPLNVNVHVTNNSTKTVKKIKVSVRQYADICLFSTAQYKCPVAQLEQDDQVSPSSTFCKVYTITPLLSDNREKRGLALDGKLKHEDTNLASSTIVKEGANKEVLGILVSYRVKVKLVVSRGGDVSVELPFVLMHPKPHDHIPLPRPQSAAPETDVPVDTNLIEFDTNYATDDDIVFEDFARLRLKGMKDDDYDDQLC
Agonist-promoted β-arrestin2 recruitment to the sphingosine-1-phosphate 1 receptor was determined using the β-arrestin PathHunter®) Detection kit (DiscoverX Corporation, Cat #: 93-0001). […] In cells that stably express these fusion proteins, stimulation with a cognate agonist results in the interaction of […] and the Prolink™-tagged GPCR. This allows the complementation of the two β-galactosidase fragments and results in the formation of a functional enzyme with β-galactosidase activity. […] Following a 60 minute incubation at 37° C. and 5% CO2 in a humidified CO2 and temperature-controlled incubator, the components of the β-arrestin PathHunter® Detection kit were added as per the manufacturer's instructions. After an hour incubation at room temperature, plates were analyzed by a BMG PheraStar microplate reader.
as §3

[3] = inhibition of cAMP production, S1P1 CHO-K1 cells

Row | Compound | hS1P1 cAMP SPAN [1] | hS1P1 cAMP pEC50 [1, 3] | hS1P1 B-arrestin2 SPAN [2] | hS1P1 B-arrestin2 pEC50 [2] | Emax [1] | EC50 ([1]; inhibition of cAMP production, S1P1 CHO-K1 cells, read-out: hS1P1 cAMP pEC50 (converted)) | Emax [2]
1 | 2-(5-(5-(2- chlorophenyl)-1,2,4- oxadiazol-3-yl)-1H- benzo[d][1,2,3]triazol- 1-yl)-2-methylpropan- 1-ol [Compound 618] | <75 | <6.5 | <75 | >5 | – | – | –
2 | Fc1cc(-c2noc(-c3ccc4c(c3)nnn4C3CCCC3)n2)ccc1C(F)(F)F [Compound 1, 1-cyclopentyl-5-{3-[3-fluoro-4-(trifluoromethyl)phenyl]-1,2,4-oxadiazol-5-yl}-1H-1,2,3-benzotriazole] | – | <6.5 | – | <5 | – | – | –
3 | CCn1nnc2cc(-c3noc(-c4ccccc4Br)n3)ccc21 [Compound 2, 5-(2-bromophenyl)-3-(1-ethyl-1H-benzo[d][1,2,3]triazol-5-yl)-1,2,4-oxadiazole] | – | – | – | >5 | > 75% | > 316 nM | < 75%
4 | Cc1ccncc1-c1noc(-c2ccc3nnn(CC(C)C)c3c2)n1 [Compound 3, 1-(2-methylpropyl)-6-[3-(4-methylpyridin-3-yl)-1,2,4-oxadiazol-5-yl]-1H-1,2,3-benzotriazole] | – | >6.5 | – | >5 | – | – | –
5 | FC(F)(F)c1cc(-c2noc(-c3ccc4c(c3)nnn4C3CCCC3)n2)ccc1OCc1cccnc1 [Compound 4, 1-cyclopentyl-5-{3-[4-(pyridin-3-ylmethoxy)-3-(trifluoromethyl)phenyl]-1,2,4-oxadiazol-5-yl}-1H-1,2,3-benzotriazole] | – | <6.5 | – | <5 | < 75% | – | < 75%
6 | CCCn1nnc2cc(-c3nc(-c4ccc(F)cc4)no3)ccc21 [Compound 5, 5-[3-(4-fluorophenyl)-1,2,4-oxadiazol-5-yl]-1-propyl-1H-1,2,3-benzotriazole] | – | <6.5 | – | <5 | – | – | –
7 | Cc1cnc(-c2noc(-c3ccc4c(c3)nnn4C3CCOCC3)n2)cn1 [Compound 6, 5-[3-(5-methylpyrazin-2-yl)-1,2,4-oxadiazol-5-yl]-1-(oxan-4-yl)-1H-1,2,3-benzotriazole] | – | <6.5 | – | <5 | < 75% | – | < 75%
8 | c1ccc(-c2noc(-c3ccc4c(c3)nnn4C3CCCC3)n2)cc1 [Compound 7, 1-cyclopentyl-5-(3-phenyl-1,2,4-oxadiazol-5-yl)-1H-1,2,3-benzotriazole] | – | <6.5 | – | <5 | – | – | –
9 | CC(C)n1nnc2cc(-c3nc(-c4ccc(-c5ccccc5)cn4)no3)ccc21 [Compound 9, 5-[3-(5-phenylpyridin-2-yl)-1,2,4-oxadiazol-5-yl]-1-(propan-2-yl)-1H-1,2,3-benzotriazole] | – | <6.5 | – | <5 | – | – | –
10 | FC(F)(F)Oc1cccc(-c2nc(-c3ccc4c(c3)nnn4C3CCCC3)no2)c1 [Compound 10, 3-(1-cyclopentyl-1H-benzo[d][1,2,3]triazol-5-yl)-5-(3-(trifluoromethoxy)phenyl)-1,2,4-oxadiazole] | <75 | <6.5 | <75 | <5 | – | – | –
11 | Cc1cccc(-c2noc(-c3ccc4c(c3)nnn4C3CCCCC3)n2)c1 [Compound 11, 1-cyclohexyl-5-[3-(3-methylphenyl)-1,2,4-oxadiazol-5-yl]-1H-1,2,3-benzotriazole] | – | <6.5 | – | <5 | – | – | –
12 | FC(F)(F)c1cccc(-c2nc(-c3ccc4c(c3)nnn4C3CCCC3)no2)c1 [Compound 12, 3-(1-cyclopentyl-1H-benzo[d][1,2,3]triazol-5-yl)-5-(3-(trifluoromethyl)phenyl)-1,2,4-oxadiazole] | – | <6.5 | – | <5 | – | – | –
13 | Oc1ccc(-c2noc(-c3ccc4c(c3)nnn4C3CCCC3)n2)cc1 [Compound 13, 4-[5-(1-cyclopentyl-1H-1,2,3-benzotriazol-5-yl)-1,2,4-oxadiazol-3-yl]phenol] | – | >6.5 | – | >5 | – | – | –
14 | CC(C)Oc1ccc(-c2nc(-c3ccc4c(c3)nnn4C3CCCC3)no2)cc1C(F)(F)F [Compound 14, 3-(1-cyclopentyl-1H-benzo[d][1,2,3]triazol-5-yl)-5-(4-isopropoxy-3-(trifluoromethyl)phenyl)-1,2,4-oxadiazole] | – | >6.5 | – | >5 | < 75% | – | < 75%
15 | CC(C)n1nnc2cc(-c3nc(-c4ccc(Oc5ccccc5)cc4)no3)ccc21 [Compound 15, 5-[3-(4-phenoxyphenyl)-1,2,4-oxadiazol-5-yl]-1-(propan-2-yl)-1H-1,2,3-benzotriazole] | – | <6.5 | – | <5 | – | – | –
16 | CSc1ccccc1-c1nc(-c2ccc3c(c2)nnn3C2CCCC2)no1 [Compound 16, 3-(1-cyclopentyl-1H-benzo[d][1,2,3]triazol-5-yl)-5-(2-(methylthio)phenyl)-1,2,4-oxadiazole] | – | <6.5 | – | >5 | – | – | –
17 | CC(C)n1nnc2cc(-c3nc(-c4ccccc4Cl)no3)ccc21 [Compound 17, 5-[3-(2-chlorophenyl)-1,2,4-oxadiazol-5-yl]-1-(propan-2-yl)-1H-1,2,3-benzotriazole] | – | >6.5 | – | >5 | – | – | –
18 | CC(C)n1nnc2cc(-c3noc(C4CCC4)n3)ccc21 [Compound 18, 5-(5-cyclobutyl-1,2,4-oxadiazol-3-yl)-1-(propan-2-yl)-1H-1,2,3-benzotriazole] | – | <6.5 | – | <5 | – | – | –
19 | CC(C)Oc1ccc(-c2noc(-c3ccc4c(c3)nnn4C(C)C)n2)cc1C(F)(F)F [Compound 20, 3-(4-isopropoxy-3-(trifluoromethyl)phenyl)-5-(1-isopropyl-1H-benzo[d][1,2,3]triazol-5-yl)-1,2,4-oxadiazole] | – | >6.5 | – | >5 | – | – | –
20 | CC(C)n1nnc2cc(-c3nc(-c4ccccc4F)co3)ccc21 [Compound 21, 5-[4-(2-fluorophenyl)-1,3-oxazol-2-yl]-1-(propan-2-yl)-1H-1,2,3-benzotriazole] | – | <6.5 | – | <5 | – | – | –
21 | CC(C)n1nnc2cc(-c3noc(-c4cccc(COc5ccccc5)c4)n3)ccc21 [Compound 23, 3-(1-isopropyl-1H-benzo[d][1,2,3]triazol-5-yl)-5-(3-(phenoxymethyl)phenyl)-1,2,4-oxadiazole] | – | <6.5 | – | <5 | – | – | –
22 | OCCCn1nnc2cc(-c3noc(-c4ccccc4Br)n3)ccc21 [Compound 24, 3-(5-(5-(2-bromophenyl)-1,2,4-oxadiazol-3-yl)-1H-benzo[d][1,2,3]triazol-1-yl)propan-1-ol] | – | <6.5 | – | <5 | – | – | –
23 | CC(C)c1ccc(-c2nc(-c3ccc4c(c3)nnn4C(C)C)no2)cn1 [Compound 25, 3-(1-isopropyl-1H-benzo[d][1,2,3]triazol-5-yl)-5-(6-isopropylpyridin-3-yl)-1,2,4-oxadiazole] | – | <6.5 | – | <5 | – | – | –
24 | CCC1(CC)CC(=O)c2cc(-c3nc(-c4ccncc4)no3)ccc2O1 [Compound 27, 2,2-diethyl-6-[3-(pyridin-4-yl)-1,2,4-oxadiazol-5-yl]-3,4-dihydro-2H-1-benzopyran-4-one] | – | <6.5 | – | >5 | > 75% | – | < 75%
25 | CCC1(CC)CC(=O)c2cc(-c3nnc(-c4cccnc4)o3)ccc2O1 [Compound 28, 2,2-diethyl-6-(5-(pyridin-3-yl)-1,3,4-oxadiazol-2-yl)chroman-4-one] | – | <6.5 | – | <5 | > 75% | – | > 75%
26 | CCC1(CC)CC(=O)c2cc(-c3nc(-c4ccc5c(c4)nnn5C(C)C)ns3)ccc2O1 [Compound 29, 2,2-diethyl-6-(3-(1-isopropyl-1H-benzo[d][1,2,3]triazol-5-yl)-1,2,4-thiadiazol-5-yl)chroman-4-one] | – | <6.5 | – | <5 | – | – | –
